Data taken from patent US20240309005A1 (priority 2021, published 2024).
Converted amounts (≈) assume the structure as drawn.

What was measured:
CYP1A2 = CYP1A2 (Homo sapiens (Human), UniProt P05177); test: in vitro; settings: microsomes
CYP2C9 = CYP2C9 (Homo sapiens (Human), UniProt P11712); test: in vitro; settings: microsomes
CYP3A4 = test: in vitro; settings: human, microsomes
physchem = settings: 25 °C, kinetic from dmso stock
CYP2B6 = CYP2B6 (Homo sapiens (Human), UniProt P20813); test: in vitro; settings: microsomes
Chain of CYP2B6 (P20813 whole entry): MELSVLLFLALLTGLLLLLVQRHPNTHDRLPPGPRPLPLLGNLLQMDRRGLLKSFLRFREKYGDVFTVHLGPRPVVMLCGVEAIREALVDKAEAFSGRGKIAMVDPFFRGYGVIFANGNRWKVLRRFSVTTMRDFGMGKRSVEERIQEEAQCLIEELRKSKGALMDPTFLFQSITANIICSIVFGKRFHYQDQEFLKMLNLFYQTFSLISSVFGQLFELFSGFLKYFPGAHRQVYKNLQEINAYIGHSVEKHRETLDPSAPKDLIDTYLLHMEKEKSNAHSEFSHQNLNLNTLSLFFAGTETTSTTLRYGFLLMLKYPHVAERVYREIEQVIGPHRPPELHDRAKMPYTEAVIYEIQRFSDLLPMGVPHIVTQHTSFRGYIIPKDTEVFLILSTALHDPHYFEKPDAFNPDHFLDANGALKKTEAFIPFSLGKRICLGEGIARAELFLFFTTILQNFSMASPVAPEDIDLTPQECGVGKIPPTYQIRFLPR

CYP2D6 = CYP2D6 (Homo sapiens (Human), UniProt P10635); test: in vitro; settings: microsomes
Chain of CYP2D6 (P10635 whole entry): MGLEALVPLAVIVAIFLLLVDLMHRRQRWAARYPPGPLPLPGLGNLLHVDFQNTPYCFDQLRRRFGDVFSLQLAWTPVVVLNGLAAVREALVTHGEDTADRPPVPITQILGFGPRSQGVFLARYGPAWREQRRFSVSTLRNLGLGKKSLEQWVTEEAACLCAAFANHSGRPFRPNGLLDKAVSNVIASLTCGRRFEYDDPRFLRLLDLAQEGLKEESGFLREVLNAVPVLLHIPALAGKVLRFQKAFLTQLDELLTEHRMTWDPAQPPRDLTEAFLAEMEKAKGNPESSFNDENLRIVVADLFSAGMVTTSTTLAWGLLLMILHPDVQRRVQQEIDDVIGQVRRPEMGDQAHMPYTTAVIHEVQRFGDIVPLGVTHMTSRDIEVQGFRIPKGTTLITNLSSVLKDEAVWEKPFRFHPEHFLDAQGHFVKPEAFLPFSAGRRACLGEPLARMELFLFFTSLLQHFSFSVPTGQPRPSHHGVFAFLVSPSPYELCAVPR

in vivo [1] = settings: male, CD1, mouse; for Cmax / bioavailability: po, 30 mg/kg
in vivo [2] = settings: male, SD, rat; for Cmax / bioavailability: po, 30 mg/kg
[3] = male, SD, in vivo

Chain of CYP2C9 (P11712 whole entry): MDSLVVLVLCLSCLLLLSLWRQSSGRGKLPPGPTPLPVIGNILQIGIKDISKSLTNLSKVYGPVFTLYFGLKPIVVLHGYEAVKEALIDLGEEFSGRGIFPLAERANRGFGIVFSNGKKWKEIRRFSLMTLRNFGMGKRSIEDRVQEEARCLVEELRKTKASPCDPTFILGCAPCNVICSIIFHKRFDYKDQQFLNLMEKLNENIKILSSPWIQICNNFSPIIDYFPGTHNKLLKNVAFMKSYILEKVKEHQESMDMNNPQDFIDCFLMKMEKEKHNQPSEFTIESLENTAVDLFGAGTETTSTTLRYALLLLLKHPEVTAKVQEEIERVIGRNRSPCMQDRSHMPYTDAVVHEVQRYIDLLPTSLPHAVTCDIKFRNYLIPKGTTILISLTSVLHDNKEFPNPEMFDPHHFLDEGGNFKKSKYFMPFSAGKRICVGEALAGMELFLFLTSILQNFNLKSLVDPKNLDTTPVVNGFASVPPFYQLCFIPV
Chain of CYP1A2 (P05177 whole entry): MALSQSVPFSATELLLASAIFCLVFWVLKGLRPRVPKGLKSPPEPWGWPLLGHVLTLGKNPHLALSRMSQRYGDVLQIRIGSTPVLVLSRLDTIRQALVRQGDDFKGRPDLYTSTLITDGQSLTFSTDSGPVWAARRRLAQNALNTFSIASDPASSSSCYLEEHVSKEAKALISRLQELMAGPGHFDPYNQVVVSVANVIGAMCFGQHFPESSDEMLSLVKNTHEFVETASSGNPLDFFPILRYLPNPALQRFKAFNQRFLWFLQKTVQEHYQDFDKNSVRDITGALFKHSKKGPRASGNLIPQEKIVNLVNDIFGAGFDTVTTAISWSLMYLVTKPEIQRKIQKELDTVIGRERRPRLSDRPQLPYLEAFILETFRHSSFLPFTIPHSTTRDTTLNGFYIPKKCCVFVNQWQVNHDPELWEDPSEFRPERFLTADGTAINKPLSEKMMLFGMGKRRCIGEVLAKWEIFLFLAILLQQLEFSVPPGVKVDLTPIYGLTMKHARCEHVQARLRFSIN

SMILES: Cc1nc2c([nH]1)c(=O)n(C)c(=O)n2Cc1ccco1 [Furafylline]
- inhibition at 20 min, 10 µM (CYP1A2): 78%

SMILES: Cc1n[nH]c2nc(-c3ccc(NS(=O)(=O)N4CCCC4)cc3)nc(OC3CCN(C(C)C)CC3)c12 [Compound 2, N-(4-(4-((1-isopropylpiperidin-4-yl)oxy)-3-methyl-1H-pyrazolo[3,4-d]pyrimidin-6-yl)phenyl)pyrrolidine-1-sulfonamide]
- inhibition at 20 min, 10 µM (CYP2C9): 13%
- inhibition at 5 min, 10 µM (CYP3A4): 7%
- inhibition at 10 min, 10 µM (CYP3A4): 13%
- solubility at 2 h (physchem; pH 5, fessif): 291 µM (≈ 145 µg/mL)
- solubility at 2 h (physchem; pH 7.4, aqueous buffer): 59.1 µM (≈ 29.5 µg/mL)
- inhibition at 20 min, 10 µM (CYP2B6): -5%
- inhibition at 20 min, 10 µM (CYP2D6): 7.3%
- inhibition at 20 min, 10 µM (CYP1A2): 5.9%

SMILES: COc1ccncc1S(=O)(=O)Nc1ccc(-c2nc(NCCN(C)C)c3c(C)n[nH]c3n2)cc1 [Compound 19, N-(4-(4-(2-(dimethylamino)ethylamino)-3-methyl-1H-pyrazolo[3,4-d]pyrimidin-6-yl)phenyl)-4-methoxypyridine-3-sulfonamide]
- Cmax (in vivo [1]): 9.3 ng/mL
- bioavailability (in vivo [1]): 0.31%
- solubility at 2 h (physchem; pH 5, fessif): 297 µM (≈ 143 µg/mL)
- solubility at 2 h (physchem; pH 7.4, aqueous buffer): 37 µM (≈ 17.9 µg/mL)
- hERG/IC50 (hERG / SGK1 (whole cell)): 1.5

SMILES: Cc1n[nH]c2nc(-c3ccc(NS(=O)(=O)c4cc(Cl)ccc4F)c(F)c3)nc(NCCN(C)CCO)c12 [Compound 78, 5-chloro-2-fluoro-N-{2-fluoro-4-[4-({2-[(2-hydroxyethyl)(methyl)amino]ethyl}amino)-3-methyl-1H-pyrazolo[3,4-d]pyrimidin-6-yl]phenyl}benzenesulfonamide]
- half-life (in vivo [1]): 2.5 h
- Cmax (in vivo [1]): 111 ng/mL
- bioavailability (in vivo [1]): 4.9%
- solubility at 2 h (physchem; pH 5, fessif): 275 µM (≈ 152 µg/mL)
- solubility at 2 h (physchem; pH 7.4, aqueous buffer): 16 µM (≈ 8.83 µg/mL)
- Cmax (in vivo [2]; pK Data in Rat: Cmax): 69 ng/mL
- pK Data in Rat: F [3]: Cmax = 69 ng/mL F = 4.9%

SMILES: Cc1n[nH]c2nc(-c3ccc(NS(=O)(=O)c4cc(Cl)ccc4F)cc3)nc(O[C@@H]3CCNCC3(F)F)c12 [Compound 44, (R)-5-chloro-N-(4-(4-((3,3-difluoropiperidin-4-yl)oxy)-3-methyl-1H-pyrazolo[3,4-d]pyrimidin-6-yl)phenyl)-2-fluorobenzenesulfonamide]
- inhibition at 20 min, 10 µM (CYP2C9): 92%
- inhibition at 5 min, 10 µM (CYP3A4): 93%
- inhibition at 10 min, 10 µM (CYP3A4): 91%
- inhibition at 20 min, 10 µM (CYP2B6): 39%
- inhibition at 20 min, 10 µM (CYP2D6): 44%
- inhibition at 20 min, 10 µM (CYP1A2): 11%

SMILES: Cc1n[nH]c2nc(-c3ccc(NS(=O)(=O)c4cc(Cl)ccc4F)c(F)c3)nc(OC3CCN(C(C)C)CC3)c12 [Compound 28]
- half-life (in vivo [1]): 3.4 h
- Cmax (in vivo [1]): 4020 ng/mL
- bioavailability (in vivo [1]): 51%
- solubility at 2 h (physchem; pH 5, fessif): 293 µM (≈ 169 µg/mL)
- solubility at 2 h (physchem; pH 7.4, aqueous buffer): 1.7 µM (≈ 0.981 µg/mL)
- Cmax (in vivo [2]; pK Data in Rat: Cmax): 4020 ng/mL
- pK Data in Rat: F [3]: Cmax = 4017 ng/mL F = 51%

SMILES: Cc1n[nH]c2nc(-c3ccc(NS(=O)(=O)c4cc(Cl)ccc4F)c(Cl)c3)nc(NCCN(C)CCO)c12 [Compound 99, 5-chloro-N-{2-chloro-4-[4-({2-[(2-hydroxyethyl)(methyl)amino]ethyl}amino)-3-methyl-1H-pyrazolo[3,4-d]pyrimidin-6-yl]phenyl}-2-fluorobenzenesulfonamide]
- half-life (in vivo [2]): 10 h
- bioavailability (in vivo [2]): 5.6%
- Cmax (in vivo [2]; Cmax (ng/ml)): 141 ng/mL
- Cmax (in vivo [2]; pK Data in Rat: Cmax): 141 ng/mL
- pK Data in Rat: F [3]: Cmax = 141 ng/mL F = 5.6%
- hERG/IC50 (hERG / SGK1 (whole cell)): 91

SMILES: COc1ccnc(S(=O)(=O)Nc2ccc(-c3nc(NCCN(C)C)c4c(C)n[nH]c4n3)cc2)c1 [Compound 27, N-(4-(4-((2-(dimethylamino)ethyl)amino)-3-methyl-1H-pyrazolo[3,4-d]pyrimidin-6-yl)phenyl)-4-methoxypyridine-2-sulfonamide]
- half-life (in vivo [1]): 2.7 h
- Cmax (in vivo [1]): 40.3 ng/mL
- solubility at 2 h (physchem; pH 5, fessif): 256 µM (≈ 124 µg/mL)
- solubility at 2 h (physchem; pH 7.4, aqueous buffer): 36.5 µM (≈ 17.6 µg/mL)
- hERG/IC50 (hERG / SGK1 (whole cell)): 341

SMILES: Cc1n[nH]c2nc(-c3ccc(NS(=O)(=O)c4ccccn4)cc3)nc(NCCN(C)C)c12 [Compound 24, N-[4-(4-[[2-(dimethylamino)ethyl]amino]-3-methyl-1H-pyrazolo[3,4-d]pyrimidin-6-yl)phenyl]pyridine-2-sulfonamide]
- half-life (in vivo [1]): 2.3 h
- Cmax (in vivo [1]): 45.1 ng/mL
- bioavailability (in vivo [1]): 1.55%
- solubility at 2 h (physchem; pH 5, fessif): 300 µM (≈ 136 µg/mL)
- solubility at 2 h (physchem; pH 7.4, aqueous buffer): 278 µM (≈ 126 µg/mL)
- hERG/IC50 (hERG / SGK1 (whole cell)): 20.7

SMILES: Cc1n[nH]c2nc(-c3ccc(NS(=O)(=O)c4cc(F)ccc4F)cc3)nc(NCCN(C)C)c12 [Compound 45, N-(4-(4-((2-(dimethylamino)ethyl)amino)-3-methyl-1H-pyrazolo[3,4-d]pyrimidin-6-yl)phenyl)-2,5-difluorobenzenesulfonamide]
- solubility at 2 h (physchem; pH 5, fessif): 277 µM (≈ 135 µg/mL)
- solubility at 2 h (physchem; pH 7.4, aqueous buffer): 7.98 µM (≈ 3.89 µg/mL)
- half-life (in vivo [2]): 3.63 h
- bioavailability (in vivo [2]): 4.68%
- Cmax (in vivo [2]; Cmax (ng/ml)): 131 ng/mL
- Cmax (in vivo [2]; pK Data in Rat: Cmax): 131 ng/mL
- pK Data in Rat: F [3]: Cmax = 131 ng/mL F = 4.7%

SMILES: Cc1n[nH]c2nc(-c3ccc(NS(=O)(=O)c4cc(F)ccc4F)c(Cl)c3)nc(NCCN(C)C)c12 [Compound 85, N-(2-chloro-4-(4-((2-(dimethylamino)ethyl)amino)-3-methyl-1H-pyrazolo[3,4-d]pyrimidin-6-yl)phenyl)-2,5-difluorobenzenesulfonamide]
- inhibition at 20 min, 10 µM (CYP2C9): 9.4%
- inhibition at 5 min, 10 µM (CYP3A4): 19%
- inhibition at 10 min, 10 µM (CYP3A4): -2.9%
- solubility at 2 h (physchem; pH 5, fessif): 315 µM (≈ 164 µg/mL)
- solubility at 2 h (physchem; pH 7.4, aqueous buffer): 4.5 µM (≈ 2.35 µg/mL)
- inhibition at 20 min, 10 µM (CYP2B6): 7.7%
- half-life (in vivo [2]): 3.6 h
- bioavailability (in vivo [2]): 92%
- Cmax (in vivo [2]; Cmax (ng/ml)): 2750 ng/mL
- Cmax (in vivo [2]; pK Data in Rat: Cmax): 2750 ng/mL
- inhibition at 20 min, 10 µM (CYP2D6): 1.8%
- pK Data in Rat: F [3]: Cmax = 2747 ng/mL F = 92%
- inhibition at 20 min, 10 µM (CYP1A2): -0.7%
- hERG/IC50 (hERG / SGK1 (whole cell)): 82

SMILES: Cc1n[nH]c2nc(-c3ccc(NS(=O)(=O)c4cc(C(F)(F)F)ccn4)cc3)nc(O[C@@H]3CCN(C)C[C@@H]3F)c12 [Compound 63, N-[4-(4-{[(3S,4R)-3-fluoro-1-methylpiperidin-4-yl]oxy}-3-methyl-1H-pyrazolo[3,4-d]pyrimidin-6-yl)phenyl]-4-(trifluoromethyl)pyridine-2-sulfonamide]
- inhibition at 20 min, 10 µM (CYP2C9): 65%
- half-life (in vivo [1]): 12 h
- Cmax (in vivo [1]): 1120 ng/mL
- inhibition at 5 min, 10 µM (CYP3A4): -24%
- inhibition at 10 min, 10 µM (CYP3A4): -2%
- solubility at 2 h (physchem; pH 5, fessif): 205 µM (≈ 116 µg/mL)
- solubility at 2 h (physchem; pH 7.4, aqueous buffer): 1.9 µM (≈ 1.07 µg/mL)
- inhibition at 20 min, 10 µM (CYP2B6): 12%
- inhibition at 20 min, 10 µM (CYP2D6): 7.5%
- inhibition at 20 min, 10 µM (CYP1A2): 2.4%

SMILES: Cc1n[nH]c2nc(-c3ccc(NS(=O)(=O)c4cc(Cl)ccc4F)cc3)nc(NCCN(C)CCO)c12 [Compound 22, 5-chloro-2-fluoro-N-[4-[4-([2-[(2-hydroxyethyl)(methyl)amino]ethyl]amino)-3-methyl-1H-pyrazolo[3,4-d]pyrimidin-6-yl]phenyl]benzenesulfonamide]
- half-life (in vivo [1]): 2.3 h
- Cmax (in vivo [1]): 37.9 ng/mL
- bioavailability (in vivo [1]): 2.5%
- solubility at 2 h (physchem; pH 5, fessif): 289 µM (≈ 154 µg/mL)
- solubility at 2 h (physchem; pH 7.4, aqueous buffer): 8.37 µM (≈ 4.47 µg/mL)
- half-life (in vivo [2]): 5.14 h
- bioavailability (in vivo [2]): 2.79%
- Cmax (in vivo [2]; Cmax (ng/ml)): 41.9 ng/mL
- Cmax (in vivo [2]; pK Data in Rat: Cmax): 42 ng/mL
- pK Data in Rat: F [3]: Cmax = 42 ng/mL F = 2.8%
- hERG/IC50 (hERG / SGK1 (whole cell)): 201

SMILES: Cc1n[nH]c2nc(-c3ccc(NS(=O)(=O)c4cc(Cl)ccc4F)cc3)nc(O[C@@H]3CCNC[C@@H]3F)c12 [Compound 29, 5-chloro-2-fluoro-N-(4-(4-(((3S,4R)-3-fluoropiperidin-4-yl)oxy)-3-methyl-1H-pyrazolo[3,4-d]pyrimidin-6-yl)phenyl)benzenesulfonamide]
- inhibition at 20 min, 10 µM (CYP2C9): 75%
- half-life (in vivo [1]): 1.04 h
- Cmax (in vivo [1]): 115 ng/mL
- bioavailability (in vivo [1]): 8%
- inhibition at 5 min, 10 µM (CYP3A4): 54%
- inhibition at 10 min, 10 µM (CYP3A4): 77%
- solubility at 2 h (physchem; pH 5, fessif): 245 µM (≈ 131 µg/mL)
- solubility at 2 h (physchem; pH 7.4, aqueous buffer): 3 µM (≈ 1.6 µg/mL)
- inhibition at 20 min, 10 µM (CYP2B6): 26%
- half-life (in vivo [2]): 9.7 h
- bioavailability (in vivo [2]): 0.45%
- Cmax (in vivo [2]; Cmax (ng/ml)): 16 ng/mL
- inhibition at 20 min, 10 µM (CYP2D6): 26%
- inhibition at 20 min, 10 µM (CYP1A2): 8.8%
- hERG/IC50 (hERG / SGK1 (whole cell)): 2476
